In patent US20240360122A1, “POLYMORPHIC FORMS AND SALTS OF A GLP-1R AGONIST” (Terns (Suzhou) Biotechnology Co., Ltd., priority 2023, published 2024):
Entries after “also recorded” stand apart in the source; their conditions may differ. Structures can show the parent of a compound that is named as a salt. Where two headings read alike, the source gives them in different places.

Tests used:
Format in all cases: physicochemical
[1] = Kinetic solubility in water and bio-relevant media (SGF, FaSSIF, FeSSIF) at 37° C.; conditions: for S: Solubility: calculated by freeform; for FC: Form change: residual solids by XRPD; for solubility at 2 h: highest solubility
Method in brief: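 Compound rolled at 37 °C (~25 rpm) in water, SGF (pH 1.8, NaCl, Triton X-100), FaSSIF (pH 6.5 phosphate, SIF powder) or FeSSIF (pH 5.0 acetate, SIF powder). Samples at 1, 2, 4 and 24 h were centrifuged and 0.45 μm-filtered; filtrate concentration and pH measured, residual solid checked by XRPD.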

[2] = Hygroscopicity by DVS at 25° C.
Description: DVS was measured via a SMS (Surface Measurement Systems) DVS Intrinsic. The relative humidity at 25° C. were calibrated against deliquescence point of LiCl, Mg(NO3)2 and KCl.

[3] = Solid state stability at 25° C./60% RH and 40° C./75% RH for 1 week; conditions: for HPLC peak Area, RRT 1.00: main peak
Description: Each sample was added into a glass vial, sealed by parafilm with several holes, and kept under tested conditions. After one week, samples were taken for XRPD and HPLC purity test.

[4] = Solubility of Meglumine salt Type A in SGF and FaSSIF at 37° C. with adjusting pH to that of the blank medium; conditions: for solubility at 2 h / solubility at 4 h: read-out: S (solubility)
Description: Detailed procedures are as follows.
1) Added ˜40 mg of sample into a 5-mL glass vial. Add 4 mL of medium. Adjust pH to 1.8 or 6.5 using HCl (1 M) or NaOH (1 M).
2) Rolled at 37° C. (˜25 rpm). Sample at 1, 2, 4 and 24 hrs.
3) At each time-point, sample 0.8 mL of solution or suspension into a centrifuge tube prior to centrifugation (12000 rpm, 37° C., 5 min) and filtration through 0.45 μm PTFE membrane.
4) Adjusted pH of the rest of suspension to 1.8 or 6.5 using HCl (1 M) or NaOH (1 M).

[5] = Slurry competition among Meglumine salt Type A/B/C; conditions: slurry competition in DMSO/EtOAc (1:6, v/v), RT and 50° C.
Description: The detailed procedures are as following:
Add 1 mL corresponding solvent.
2) Magnetically stir at RT or 50° C. for 1 day. Filter through 0.45 μm PTFE filter to obtain clear solution.
4) Magnetically stir at RT or 50° C. for 1 day. Test XRPD of the wet cake.

[6] = Competitive experiments of Type A and Type B in different solvent system at different temperature; conditions: different ratio of DMSO/EA system at different temperature
[7] = pH 1.8, simulated gastric fluid, thermodynamic from solid, SGF, pH adjusted to 1.8, 37° C., read-out: solubility in SGF
[8] = pH 6.5, thermodynamic from solid, FaSSIF, pH adjusted to 6.5, 37° C., read-out: solubility in FaSSIF

## N#Cc1ccc(COc2cccc(C3CCN(Cc4nc5ccc(C(=O)O)cc5n4Cc4cncs4)CC3)n2)c(F)c1 [Meglumine salt Type A]
[1]; FaSSIF, 37° C., 1 hr
  S: Solubility: 900 µg/mL
  FC: Form change: Yes
[1]; FaSSIF, 37° C., 2 hrs
  S: Solubility: 1300 µg/mL
  FC: Form change: Yes
[1]; FaSSIF, 37° C., 4 hrs
  S: Solubility: 720 µg/mL
  FC: Form change: Yes
[1]; FaSSIF, 37° C., 24 hrs
  S: Solubility: 70 µg/mL
  FC: Form change: Yes
[1]; FaSSIF, 37 °C, pH 6.5, fassif, thermodynamic from solid, FaSSIF, 37° C., read-out: solubility in FaSSIF
  solubility at 2 h: 1300 µg/mL
[1]; FeSSIF, 37° C., 1 hr
  S: Solubility: 170 µg/mL
  FC: Form change: Yes
[1]; FeSSIF, 37° C., 2 hrs
  S: Solubility: 170 µg/mL
  FC: Form change: Yes
[1]; FeSSIF, 37° C., 4 hrs
  S: Solubility: 86 µg/mL
  FC: Form change: Yes
[1]; FeSSIF, 37° C., 24 hrs
  S: Solubility: 27 µg/mL
  FC: Form change: Yes
[1]; H2O, 37° C., 1 hr
  S: Solubility: >8600 µg/mL
[1]; H2O, 37° C., 2 hrs
  S: Solubility: >8900 µg/mL
[1]; H2O, 37° C., 4 hrs
  S: Solubility: >8300 µg/mL
[1]; H2O, 37° C., 24 hrs
  S: Solubility: 7000 µg/mL
  FC: Form change: Yes
[1]; H2O, SGF and FaSSIF, 37° C.
  solubility compared with the other selected salts and Freeform Type C: higher solubility than other salts and Freeform Type C; also recorded: higher solubility in H2O, SGF and FaSSIF
[1]; SGF, 37° C., 1 hr
  S: Solubility: 380 µg/mL
  FC: Form change: Yes
[1]; SGF, 37° C., 2 hrs
  S: Solubility: 720 µg/mL
  FC: Form change: Yes
[1]; SGF, 37° C., 4 hrs
  S: Solubility: 680 µg/mL
  FC: Form change: Yes
[1]; SGF, 37° C., 24 hrs
  S: Solubility: 290 µg/mL
  FC: Form change: Yes
[1]; SGF, 37 °C, pH 1.8, simulated gastric fluid, thermodynamic from solid, SGF, 37° C., read-out: solubility in SGF
  solubility at 2 h: 720 µg/mL
[1]; all the media (H2O, SGF, FaSSIF, FeSSIF), after 24 hrs
  form change of residual solids (XRPD) after solubility test: form change was observed
[1]; in H2O, SGF and FaSSIF, comparison among selected salts and Freeform Type C
  Kinetic Solubility: 1) In H2O, SGF and FaSSIF, Meglumine salt Type A exhibited higher solubility than other salts and Freeform Type C;
[1]; water, 37 °C, thermodynamic from solid, H2O, at 1, 2 and 4 hrs
  solubility: > 8300 µg/mL
[1]; water, 37 °C, thermodynamic from solid, H2O, throughout the 24-hour process
  solubility: ≥ 7000 µg/mL
[1]; water, 37 °C, water, thermodynamic from solid, H2O, 37° C., at 24 hrs, read-out: solubility in H2O
  solubility at 24 h: 7000 µg/mL
[2]; 25° C./80% RH
  water uptake (DVS): 1.43%
[2]; DVS, 25° C.
  hygroscopicity: slightly hygroscopic
[2]; DVS, 25° C./80% RH
  Water uptake at 25° C./80% RH: 1.43 wt %
[2]; XRPD after DVS test
  For change after DVS: No
[2]; after DVS test
  form change after DVS test (XRPD): no form change
[3]; 25° C./60% RH, 1 week
  HPLC peak Area, RRT 0.70: 0.07%
  HPLC peak Area, RRT 0.73: 0.14%
  HPLC peak Area, RRT 0.80: 0.05%
  HPLC peak Area, RRT 0.83: 1.93%
  HPLC peak Area, RRT 0.90: 0.12%
  HPLC peak Area, RRT 0.99: <0.05%
  HPLC peak Area, RRT 1.05: 0.28%
  HPLC peak Area, RRT 1.10: 0.23%
  HPLC peak Area, RRT 1.12: <0.05%
  HPLC peak Area, RRT 1.15: 0.11%
  HPLC peak Area, RRT 1.34: 0.08%
  HPLC peak Area, RRT 1.00: 96.98%
[3]; 25° C./60% RH/Open/1 week
  Form change: No
  Purity: 96.98 Area %
[3]; 25° C./60% RH/open and 40° C./75% RH/open, 1 week
  solid-state stability: form change and purity decrease: no form change or significant purity decrease
[3]; 40° C./75% RH, 1 week
  HPLC peak Area, RRT 0.70: 0.06%
  HPLC peak Area, RRT 0.73: 0.15%
  HPLC peak Area, RRT 0.80: 0.05%
  HPLC peak Area, RRT 0.83: 1.96%
  HPLC peak Area, RRT 0.90: 0.11%
  HPLC peak Area, RRT 0.99: <0.05%
  HPLC peak Area, RRT 1.05: 0.28%
  HPLC peak Area, RRT 1.10: 0.34%
  HPLC peak Area, RRT 1.12: <0.05%
  HPLC peak Area, RRT 1.15: 0.13%
  HPLC peak Area, RRT 1.34: 0.05%
  HPLC peak Area, RRT 1.00: 96.88%
[3]; 40° C./75% RH/Open/1 week
  Form change: No
  Purity: 96.88 Area %
[3]; Initial
  HPLC peak Area, RRT 0.70: 0.07%
  HPLC peak Area, RRT 0.73: 0.13%
  HPLC peak Area, RRT 0.80: 0.05%
  HPLC peak Area, RRT 0.83: 1.95%
  HPLC peak Area, RRT 0.90: 0.12%
  HPLC peak Area, RRT 0.99: 0.11%
  HPLC peak Area, RRT 1.05: 0.28%
  HPLC peak Area, RRT 1.10: 0.24%
  HPLC peak Area, RRT 1.12: 0.05%
  HPLC peak Area, RRT 1.15: 0.11%
  HPLC peak Area, RRT 1.34: 0.16%
  Purity: 96.73 Area %
  HPLC peak Area, RRT 1.00: 96.73%
[4]; SGF, 37° C., pH adjusted to 1.8, 1 hr
  S (solubility): 730 µg/mL
[4]; pH 1.8, simulated gastric fluid, thermodynamic from solid, SGF, 37° C., pH adjusted to 1.8, 2 hrs
  solubility at 2 h: 160 µg/mL
[4]; pH 1.8, simulated gastric fluid, thermodynamic from solid, SGF, 37° C., pH adjusted to 1.8, 4 hrs
  solubility at 4 h: 120 µg/mL
[4]; [7]
  solubility at 1 h: 730 µg/mL
  solubility at 24 h: 140 µg/mL
[4]; pH 6.5, thermodynamic from solid, FaSSIF, 37° C., pH adjusted to 6.5, 2 hrs
  solubility at 2 h: 14 µg/mL
[4]; pH 6.5, thermodynamic from solid, FaSSIF, 37° C., pH adjusted to 6.5, 4 hrs
  solubility at 4 h: 11 µg/mL
[4]; [8]
  solubility at 1 h: 29 µg/mL
  solubility at 24 h: 6 µg/mL
[5]
  thermodynamic stability relationship among Meglumine salt forms: thermodynamically more stable anhydrate; also recorded: more thermodynamically stable form; also recorded: thermodynamically more stable form
[6]
  thermodynamic stability, Type A versus Type B: thermodynamically more stable
